According to PubChem BioAssay AID330 (DTP/NCI, 2004):
Several values for one entry are separate records, joined by “and”; a condition that tells them apart may be missing. Equal values may be shown once. Inconclusive results and toxic doses are left out. How the source made its calls: active means survival T/C of 150% or more; inactive means T/C below 125% in these data.

Test system: P388 leukemia ip, CD2F1 mice, survival T/C
Test: NCI In Vivo Anticancer Drug Screen. Data for tumor model P388 Leukemia (intraperitoneal) in CD2F1 (CDF1) mice
Conditions: endpoint: median survival time, higher = longer survival
How it was run: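 Mice carrying the transplanted tumor received test compound or vehicle. Survival was recorded in each group, and the value is the treated-group measurement divided by that of the vehicle-treated control group.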

[1] = dose: 50.0 mg/kg/injection, schedule: Q01DX005 (ip), vehicle: saline
[2] = dose: 100.0 mg/kg/injection, schedule: Q01DX005 (ip), vehicle: saline
[3] = dose: 200.0 mg/kg/injection, schedule: Q01DX005 (ip), vehicle: saline
[4] = dose: 6.25 mg/kg/injection, schedule: Q01DX009 (ip), vehicle: saline with Tween-80
[5] = dose: 12.5 mg/kg/injection, schedule: Q01DX009 (ip), vehicle: saline with Tween-80
[6] = dose: 100.0 mg/kg/injection, schedule: Q01DX009 (ip), vehicle: saline with Tween-80
[7] = dose: 200.0 mg/kg/injection, schedule: Q01DX009 (ip), vehicle: saline with Tween-80
[8] = dose: 60.0 mg/kg/injection, schedule: Q01DX005 (ip), vehicle: Klucel (hydroxypropylcellulose) (HPC)
[9] = dose: 120.0 mg/kg/injection, schedule: Q01DX005 (ip), vehicle: Klucel (hydroxypropylcellulose) (HPC)
[10] = dose: 240.0 mg/kg/injection, schedule: Q01DX005 (ip), vehicle: Klucel (hydroxypropylcellulose) (HPC)
[11] = dose: 50.0 mg/kg/injection, schedule: Q01DX009 (ip), vehicle: saline with Tween-80
[12] = dose: 25.0 mg/kg/injection, schedule: Q04DX002 (ip), vehicle: saline with Tween-80
[13] = dose: 50.0 mg/kg/injection, schedule: Q04DX002 (ip), vehicle: saline with Tween-80
[14] = dose: 100.0 mg/kg/injection, schedule: Q04DX002 (ip), vehicle: saline with Tween-80
[15] = dose: 60.0 mg/kg/injection, schedule: Q01DX005 (ip), vehicle: saline with Tween-80
[16] = dose: 120.0 mg/kg/injection, schedule: Q01DX005 (ip), vehicle: saline with Tween-80
[17] = dose: 240.0 mg/kg/injection, schedule: Q01DX005 (ip), vehicle: saline with Tween-80

Measured: T/C

O=c1[nH]c(-c2cccc(-c3nnc(-c4ccccc4Cl)c(=O)[nH]3)c2)nnc1-c1ccccc1Cl
inactive: dose: 100.0 mg/kg/injection, schedule: Q04DX002 (ip), vehicle: Klucel (hydroxypropylcellulose) (HPC) 100 % of control | dose: 200.0 mg/kg/injection, schedule: Q04DX002 (ip), vehicle: Klucel (hydroxypropylcellulose) (HPC) 100 % of control | dose: 400.0 mg/kg/injection, schedule: Q04DX002 (ip), vehicle: Klucel (hydroxypropylcellulose) (HPC) 96 % of control

CN1C(C)(C)CC(O)(C(=O)O)CC1(C)C
inactive: [1] 94 % of control | [2] 91 % of control | [3] 87 % of control

CN(C)c1ccc(/C=[N+](\[O-])C(C)(C)CO)cc1
inactive: [4] 100 % of control | [5] 102 % of control | dose: 25.0 mg/kg/injection, schedule: Q01DX009 (ip), vehicle: saline with Tween-80 100 % of control | [6] 96 % of control | [7] 97 % of control

C=C(Br)C[C@]1(C(=O)OC)CC(=O)CC[C@H]1c1ccco1
inactive: [8] 108 % of control | [9] 107 % of control | [10] 106 % of control

CCCCOC(=O)N(CCF)N=O
inactive: dose: 3.12 mg/kg/injection, schedule: Q01DX001 (ip), vehicle: saline with Tween-80 109 % of control | dose: 6.25 mg/kg/injection, schedule: Q01DX001 (ip), vehicle: saline with Tween-80 118 % of control and 119 % of control | dose: 12.5 mg/kg/injection, schedule: Q01DX001 (ip), vehicle: saline with Tween-80 118 % of control and 119 % of control

O=[N+]([O-])CC(c1ccccc1)C(C[N+](=O)[O-])c1ccccc1 (stereo not given)
inactive: dose: 6.25 mg/kg/injection, schedule: Q01DX005 (ip), vehicle: saline with Tween-80 100 % of control | dose: 12.5 mg/kg/injection, schedule: Q01DX005 (ip), vehicle: saline with Tween-80 87 % of control | dose: 25.0 mg/kg/injection, schedule: Q01DX005 (ip), vehicle: saline with Tween-80 95 % of control | dose: 50.0 mg/kg/injection, schedule: Q01DX005 (ip), vehicle: saline with Tween-80 91 % of control | dose: 100.0 mg/kg/injection, schedule: Q01DX005 (ip), vehicle: saline with Tween-80 91 % of control and 86 % of control

Cc1ccc(N=C(N)NC#N)cc1
inactive: [11] 100 % of control | [6] 90 % of control | dose: 100.0 mg/kg/injection, schedule: Q04DX003 (ip), vehicle: saline with Tween-80 91 % of control | [7] 90 % of control | dose: 200.0 mg/kg/injection, schedule: Q04DX003 (ip), vehicle: saline with Tween-80 87 % of control

CCc1ncc(C(C)(O)c2ccc(C)cc2)n1Cc1ccccc1 (stereo not given)
inactive: [8] 90 % of control | [9] 86 % of control | [10] 86 % of control

COc1ccc2c(c1)Oc1c(Cl)c3c(c(Cl)c1=N2)Oc1cc(OC)ccc1N=3
inactive: dose: 100.0 mg/kg/injection, schedule: Q01DX001 (ip), vehicle: saline with Tween-80 89 % of control | dose: 200.0 mg/kg/injection, schedule: Q01DX001 (ip), vehicle: saline with Tween-80 89 % of control | dose: 400.0 mg/kg/injection, schedule: Q01DX001 (ip), vehicle: saline with Tween-80 115 % of control

Cc1cc(C)n2nc3c4ccsc4ncc3c2n1
inactive: [12] 105 % of control and 95 % of control | [13] 99 % of control and 105 % of control | [14] 116 % of control and 118 % of control and 119 % of control

COc1ccc(NC(CCN2CCN(c3ccccc3)CC2)=NC(C)(C)C)cc1
inactive: dose: 50.0 mg/kg/injection, schedule: Q01DX009 (ip), vehicle: Klucel (hydroxypropylcellulose) (HPC) 96 % of control | dose: 100.0 mg/kg/injection, schedule: Q01DX009 (ip), vehicle: Klucel (hydroxypropylcellulose) (HPC) 96 % of control

COc1ccc(C2c3cc(O)c(OC)cc3Oc3cc(OC)c(O)cc32)cc1
inactive: dose: 50.0 mg/kg/injection, schedule: Q01DX005 (ip), vehicle: Klucel (hydroxypropylcellulose) (HPC) 87 % of control | dose: 100.0 mg/kg/injection, schedule: Q01DX005 (ip), vehicle: Klucel (hydroxypropylcellulose) (HPC) 94 % of control | dose: 200.0 mg/kg/injection, schedule: Q01DX005 (ip), vehicle: Klucel (hydroxypropylcellulose) (HPC) 96 % of control

CC1(C)N=C(N)N=C(N)N1c1cccc(OCCOc2ccccc2[N+](=O)[O-])c1
inactive: [15] 104 % of control | [16] 95 % of control | [17] 98 % of control

CC1=C2C(=CO[C@H](C)[C@H]2C)C(=O)C(C(=O)O)=C1O
inactive: dose: 6.25 mg/kg/injection, schedule: Q01DX009 (ip), vehicle: Klucel (hydroxypropylcellulose) (HPC) 112 % of control | dose: 6.25 mg/kg/injection, schedule: Q01DX009 (ip), vehicle: saline 117 % of control | dose: 12.5 mg/kg/injection, schedule: Q01DX009 (ip), vehicle: Klucel (hydroxypropylcellulose) (HPC) 120 % of control | dose: 12.5 mg/kg/injection, schedule: Q01DX009 (ip), vehicle: saline 115 % of control | dose: 25.0 mg/kg/injection, schedule: Q01DX009 (ip), vehicle: Klucel (hydroxypropylcellulose) (HPC) 124 % of control

c1ccc2c(NCCCN3CCN(CCCNc4c5ccccc5nc5ccccc45)CC3)c3ccccc3nc2c1
inactive: dose: 0.93 mg/kg/injection, schedule: Q01DX005 (ip), vehicle: Klucel (hydroxypropylcellulose) (HPC) 110 % of control | dose: 1.88 mg/kg/injection, schedule: Q01DX005 (ip), vehicle: Klucel (hydroxypropylcellulose) (HPC) 104 % of control

NC(=Nc1ccc(Cl)cc1)NN=C(c1ccc(Cl)cc1)c1ccc(Cl)cc1
inactive: [12] 104 % of control | [13] 101 % of control | [14] 102 % of control | dose: 200.0 mg/kg/injection, schedule: Q04DX002 (ip), vehicle: saline with Tween-80 100 % of control | dose: 400.0 mg/kg/injection, schedule: Q04DX002 (ip), vehicle: saline with Tween-80 113 % of control

CNC(=O)OCc1c(-c2ccccc2)c(-c2ccccc2)n(-c2ccc(OC)cc2)c1COC(=O)NC
inactive: dose: 12.5 mg/kg/injection, schedule: Q01DX009 (ip), vehicle: distilled water + Tween-80 106 % of control | dose: 25.0 mg/kg/injection, schedule: Q01DX009 (ip), vehicle: distilled water + Tween-80 103 % of control and 119 % of control | dose: 50.0 mg/kg/injection, schedule: Q01DX009 (ip), vehicle: distilled water + Tween-80 102 % of control and 119 % of control | dose: 100.0 mg/kg/injection, schedule: Q01DX009 (ip), vehicle: distilled water + Tween-80 116 % of control and 124 % of control

O=c1[nH]cnc2[nH]ccc12
inactive: [11] 106 % of control

CCOC(=O)C(C)n1ncnn1 (stereo not given)
inactive: [1] 107 % of control | [2] 102 % of control | [3] 98 % of control

CC(C)CCC[C@@H](C)[C@H]1CC[C@H]2[C@@H]3CC=C4C[C@@H](OC(=O)Cc5ccc(N(CCCl)CCCl)cc5)CC[C@]4(C)[C@H]3CC[C@]12C
inactive: dose: 50.0 mg/kg/injection, schedule: Q01DX010 (ip), vehicle: Klucel (hydroxypropylcellulose) (HPC) 101 % of control | dose: 100.0 mg/kg/injection, schedule: Q01DX010 (ip), vehicle: Klucel (hydroxypropylcellulose) (HPC) 99 % of control | dose: 200.0 mg/kg/injection, schedule: Q01DX010 (ip), vehicle: Klucel (hydroxypropylcellulose) (HPC) 101 % of control | dose: 400.0 mg/kg/injection, schedule: Q01DX010 (ip), vehicle: Klucel (hydroxypropylcellulose) (HPC) 105 % of control | dose: 800.0 mg/kg/injection, schedule: Q01DX010 (ip), vehicle: Klucel (hydroxypropylcellulose) (HPC) 92 % of control

CSCc1cc(CO)no1
inactive: [15] 100 % of control | [16] 99 % of control | [17] 106 % of control

CC1=CC(C)(C)NC(=S)N1c1cccc(Cl)c1
inactive: dose: 3.12 mg/kg/injection, schedule: Q01DX009 (ip), vehicle: saline with Tween-80 107 % of control and 118 % of control | [4] 111 % of control and 114 % of control | [5] 101 % of control and 118 % of control | [6] 93 % of control | [7] 90 % of control | dose: 400.0 mg/kg/injection, schedule: Q01DX009 (ip), vehicle: saline with Tween-80 90 % of control

CCCCN1CSC2CCCCC21 (stereo not given)
inactive: dose: 25.0 mg/kg/injection, schedule: Q01DX005 (ip), vehicle: saline 98 % of control | [1] 111 % of control and 93 % of control | [2] 104 % of control and 111 % of control | [3] 121 % of control

Nc1ccc2oc3cccnc3c2c1
inactive: dose: 100.0 mg/kg/injection, schedule: Q04DX003 (ip), vehicle: saline 104 % of control | dose: 200.0 mg/kg/injection, schedule: Q04DX003 (ip), vehicle: saline 111 % of control | dose: 400.0 mg/kg/injection, schedule: Q04DX003 (ip), vehicle: saline 102 % of control
